Entries after “also recorded” stand apart in the source; their conditions may differ. One block for each compound: values may come before it.
Legend:
α-amylase = assay: In vitro α-amylase inhibition assay; format: biochemical; settings: read-out: α-Amylase activity IC50 ± SEM; mean ± SEM, triplicate; iodine starch method, pH 6.8, 50 °C, 30 minutes
Staphylococcus aureus = assay: Antibacterial disc diffusion assay, Staphylococcus aureus; format: cell-based; settings: for Antibacterial zone of inhibition, Staphylococcus aureus: disc diffusion, samples 100 μM, kanamycin 10 μM, 24 hours at 37 °C
Escherichia coli = assay: Antibacterial disc diffusion assay, Escherichia coli; format: cell-based; settings: for Antibacterial zone of inhibition, Escherichia coli: disc diffusion, samples 100 μM, kanamycin 10 μM, 24 hours at 37 °C
Bacillus subtilis = assay: Antibacterial disc diffusion assay, Bacillus subtilis; format: cell-based; settings: samples 100 μM, kanamycin 10 μM, 24 hours at 37 °C
Pseudomonas aeruginosa = assay: Antibacterial disc diffusion assay, Pseudomonas aeruginosa; format: cell-based; settings: samples 100 μM, kanamycin 10 μM, 24 hours at 37 °C
Candida albicans = assay: Antifungal disc diffusion assay, Candida albicans; format: cell-based; settings: read-out: Antifungal zone of inhibition, Candida albicans
urease = urease (Canavalia ensiformis, UniProt P07374); settings: read-out: Urease activity IC50 ± SEM; pH 8.2
Sequence of urease (P07374 whole entry, looked up): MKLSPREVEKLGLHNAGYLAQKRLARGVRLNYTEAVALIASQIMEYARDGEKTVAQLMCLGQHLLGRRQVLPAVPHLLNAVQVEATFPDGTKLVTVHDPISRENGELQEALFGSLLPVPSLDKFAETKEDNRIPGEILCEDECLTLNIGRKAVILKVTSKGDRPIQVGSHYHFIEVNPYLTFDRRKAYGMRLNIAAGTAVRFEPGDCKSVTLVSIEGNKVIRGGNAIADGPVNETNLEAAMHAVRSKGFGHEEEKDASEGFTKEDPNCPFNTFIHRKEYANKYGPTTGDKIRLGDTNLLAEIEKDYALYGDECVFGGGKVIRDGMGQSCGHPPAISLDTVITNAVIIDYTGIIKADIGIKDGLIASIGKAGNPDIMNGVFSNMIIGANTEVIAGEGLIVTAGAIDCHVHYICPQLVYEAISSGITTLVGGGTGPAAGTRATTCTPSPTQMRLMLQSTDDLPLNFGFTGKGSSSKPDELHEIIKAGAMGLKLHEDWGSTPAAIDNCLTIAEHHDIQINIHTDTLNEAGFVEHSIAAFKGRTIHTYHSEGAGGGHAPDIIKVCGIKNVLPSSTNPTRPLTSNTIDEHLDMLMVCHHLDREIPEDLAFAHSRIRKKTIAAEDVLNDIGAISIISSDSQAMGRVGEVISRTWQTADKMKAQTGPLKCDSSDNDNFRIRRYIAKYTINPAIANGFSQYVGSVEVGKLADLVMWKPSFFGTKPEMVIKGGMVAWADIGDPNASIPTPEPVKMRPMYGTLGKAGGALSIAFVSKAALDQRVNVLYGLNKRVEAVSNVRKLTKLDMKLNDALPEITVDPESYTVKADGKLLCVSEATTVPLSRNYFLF

IC50 (α-amylase): 118.4 ± 0.64 µM
Structure (SMILES): Cc1ccc(C(=O)N(C(=O)c2ccc(C)cc2)C(=S)N2N=C(c3ccc(F)cc3)CC2c2ccc(F)cc2)cc1 (stereo not shown) [Compound 5a, N-(3,5-Bis(4-fluorophenyl)-4,5-dihydro-1H-pyrazole-1-carbonothioyl)-4-methyl-N-(4-methylbenzoyl)benzamide]

IC50 (α-amylase): 99.3 ± 0.62 µM
Structure (SMILES): Cc1ccc(C(=O)N(C(=O)c2ccc(C)cc2)C(=S)N2N=C(c3ccc(F)cc3)CC2c2cccc(F)c2)cc1 (stereo not shown) [Compound 5b, N-(5-(3-Fluorophenyl)-3-(4-fluorophenyl)-4,5-dihydro-1H-pyrazole-1-carbonothioyl)-4-methyl-N-(4-methylbenzoyl)benzamide]

IC50 (α-amylase): 104 ± 3.18 µM
Structure (SMILES): Cc1ccc(C(=O)N(C(=O)c2ccc(C)cc2)C(=S)N2N=C(c3ccccc3)CC2c2ccc(F)cc2)cc1 (stereo not shown) [Compound 5d, N-(5-(4-Fluorophenyl)-3-phenyl-4,5-dihydro-1H-pyrazole-1-carbonothioyl)-4-methyl-N-(4-methylbenzoyl)benzamide]
zone of inhibition at 100 µM (Staphylococcus aureus; Staphylococcus aureus, 24 h, read-out: Antibacterial zone of inhibition, Staphylococcus aureus): 10 mm
Antibacterial zone of inhibition, Staphylococcus aureus (Staphylococcus aureus): significant antibacterial activity; also recorded: excellent bacterial inhibition zone
zone of inhibition at 100 µM (Escherichia coli; Escherichia coli, 24 h, read-out: Antibacterial zone of inhibition, Escherichia coli): 7 mm
Antibacterial zone of inhibition, Escherichia coli (Escherichia coli): significant antibacterial activity; also recorded: excellent bacterial inhibition zone

IC50 (α-amylase): 97.4 ± 1.53 µM
Structure (SMILES): Cc1ccc(C(=O)N(C(=O)c2ccc(C)cc2)C(=S)N2N=C(c3ccc(Br)cc3)CC2c2ccc(F)cc2)cc1 (stereo not shown) [Compound 5e, N-(3-(4-Bromophenyl)-5-(4-fluorophenyl)-4,5-dihydro-1H-pyrazole-1-carbonothioyl)-4-methyl-N-(4-methylbenzoyl)benzamide]

IC50 (α-amylase): 90.3 ± 1.08 µM
Structure (SMILES): Cc1ccc(C(=O)N(C(=O)c2ccc(C)cc2)C(=S)N2N=C(c3ccc(Br)cc3)CC2c2cccc(F)c2)cc1 (stereo not shown) [Compound 5f, N-(3-(4-Bromophenyl)-5-(3-fluorophenyl)-4,5-dihydro-1H-pyrazole-1-carbonothioyl)-4-methyl-N-(4-methylbenzoyl)benzamide]

IC50 (α-amylase): 131 ± 1.56 µM
Structure (SMILES): Cc1ccc(C(=O)N(C(=O)c2ccc(C)cc2)C(=S)N2N=C(c3ccc(Cl)cc3)CC2c2ccc(Cl)cc2)cc1 (stereo not shown) [Compound 5g, N-(3,5-Bis(4-chlorophenyl)-4,5-dihydro-1H-pyrazole-1-carbonothioyl)-4-methyl-N-(4-methylbenzoyl)benzamide]

IC50 (α-amylase): 121 ± 3.75 µM
Structure (SMILES): Cc1ccc(C(=O)N(C(=O)c2ccc(C)cc2)C(=S)N2N=C(c3ccccc3)CC2c2ccc(C)cc2)cc1 (stereo not shown) [Compound 5h, 4-Methyl-N-(4-methylbenzoyl)-N-(3-phenyl-5-(p-tolyl)-4,5-dihydro-1H-pyrazole-1-carbonothioyl)benzamide]

IC50 (α-amylase): 114.6 ± 0.28 µM
Structure (SMILES): Cc1ccc(C(=O)N(C(=O)c2ccc(C)cc2)C(=S)N2N=C(c3ccc(C)cc3)CC2c2ccc(F)cc2)cc1 (stereo not shown) [Compound 5i, N-(5-(4-Fluorophenyl)-3-(p-tolyl)-4,5-dihydro-1H-pyrazole-1-carbonothioyl)-4-methyl-N-(4-methylbenzoyl)benzamide]

IC50 (α-amylase): 110 ± 1.56 µM
Structure (SMILES): Cc1ccc(C(=O)N(C(=O)c2ccc(C)cc2)C(=S)N2N=C(c3ccc(C)cc3)CC2c2ccc(Cl)cc2)cc1 (stereo not shown) [Compound 5j, N-(5-(4-Chlorophenyl)-3-(p-tolyl)-4,5-dihydro-1H-pyrazole-1-carbonothioyl)-4-methyl-N-(4-methylbenzoyl)benzamide]

Structure (SMILES): NC[C@H]1O[C@H](O[C@H]2[C@H](O)[C@@H](O[C@H]3O[C@H](CO)[C@@H](O)[C@H](N)[C@H]3O)[C@H](N)C[C@@H]2N)[C@H](O)[C@@H](O)[C@@H]1O [Kanamycin, reference compound]
Antibacterial zone of inhibition, Staphylococcus aureus (Staphylococcus aureus): 18 mm
Antibacterial zone of inhibition, Bacillus subtilis (Bacillus subtilis): 22 mm
Antibacterial zone of inhibition, Pseudomonas aeruginosa (Pseudomonas aeruginosa): 20 mm
Antibacterial zone of inhibition, Escherichia coli (Escherichia coli): 16 mm

Structure (SMILES): CN(C/C=C/C#CC(C)(C)C)Cc1cccc2ccccc12 [Terbinafine]
zone of inhibition at 10 µM (Candida albicans): 20 mm

Structure (SMILES): NC(N)=S [Thiourea]
IC50 (urease): 9.8 ± 0.1 µM
